From patent US20180000778A1, “SMALL MOLECULE ANTAGONISTS OF DUSP5 AND METHODS OF USE” (THE MEDICAL COLLEGE OF WISCONSIN, INC., priority 2015, published 2018)

Key:
full-length DUSP5 = target: T1, full-length DUSP5 (Homo sapiens, UniProt Q16690); experiment: ERK dephosphorylation assay, full-length DUSP5 with pERK2 substrate, western blot; assay type: biochemical
T1 construct: an assay was development using ERK2 and full-length DUSP5
T1 sequence (Q16690 1-384): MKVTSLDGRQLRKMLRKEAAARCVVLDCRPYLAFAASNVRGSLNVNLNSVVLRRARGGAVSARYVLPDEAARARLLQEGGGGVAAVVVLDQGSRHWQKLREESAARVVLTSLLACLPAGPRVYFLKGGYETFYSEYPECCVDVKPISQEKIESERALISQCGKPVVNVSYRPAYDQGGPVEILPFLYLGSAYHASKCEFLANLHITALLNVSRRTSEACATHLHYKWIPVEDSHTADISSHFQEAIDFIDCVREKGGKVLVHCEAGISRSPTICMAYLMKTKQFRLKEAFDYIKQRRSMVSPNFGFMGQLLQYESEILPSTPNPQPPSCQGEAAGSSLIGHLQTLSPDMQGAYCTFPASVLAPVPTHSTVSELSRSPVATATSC
Experimental: ERK Dephosphorylation Assay.
For this assay, 10 ng of GST-tagged recombinant phosphorylated ERK2 (R&D Systems, 1230-KS) was incubated with and without the indicated DUSP5 proteins (0.5 nM final concentration) for 15 min at room temperature, with or without the indicated drugs. The reactions were halted with 2× Laemmli sample buffer and subjected to SDS-PAGE. The proteins were transferred to polyvinylidene difluoride (PVDF) and immunoblotted using antibodies to pERK (Cell Signaling Tech., #9106) and Total ERK (Cell Signaling Tech., #9102). Bound antibodies were visualized using horseradish peroxidase-linked anti-mouse IgG (Cell Signaling Tech, #7076S) and anti-rabbit IgG (Cell Signaling Tech, #7074S), respectively, and ECL reagents (Pierce, 34708) according to the manufacturer's protocol. IC50s were calculated using GraphPad Prism 6 software.
And, the native substrate for DUSP5 is the pERK2 protein, which is much larger and capable of a more complicated range of inter-molecular interactions that the pNPP substrate (which is intended only to mimic the phospho-tyrosine of pERK). […] To this end, an assay was development using ERK2 and full-length DUSP5, monitoring pERK levels in a western blot, as a function of pERK2 substrate concentration. […] This surprising increase in potency for CSD3-2320 (but not NTS) with full length DUSP5 underscores the importance of performing secondary assays with biologically relevant forms of enzyme and substrate.

[1] = system: normal vasculature in a developing embryo; experiment: Effect on normal vasculature in a developing embryo
[2] = Aggregation of compounds (nephelometry; detergent treatment); assay type: physicochemical
Experimental: Nephelometry is a technique for measuring the relative aggregation of particles in solution, based on the light-scattering properties of molecular aggregates (30). To explore the ability of the chemicals studied herein to form aggregates, which can lead to artifactual inhibition effects, nephelometry was performed. Compounds were tested for aggregation in 96-well plates using a buffer containing 100 mM Tris base, 100 mM sodium chloride, and 5 mM magnesium chloride at pH 7.5. Each compound analyzed in these experiments contained concentrations of compound ranging from 10-100 μM, recorded in quadruplet. Each plate was analyzed at two separate gain values of 52 and 72. Data were collected using a BMG NEPHELOstar Plus, equipped with a 635 nm laser.
To investigate whether Suramin aggregates in solution, a property often investigated with small molecules, we performed detergent treatment assays. […] NTS and Suramin were compared using DUSP5 PD IC50 assays performed with and without detergent. […] We concluded that Suramin forms aggregates in vitro which can lead to non-specific protein inhibition effects. Beyond any adverse implications for repurposing Suramin in this project, the aggregation phenomenon raises more global concerns regarding the current clinical use of Suramin, and may in part explain some of the known toxicity associated with Suramin (32).

PTPRA (LRP) = PTPRA (LRP) (Homo sapiens, UniProt P18433); experiment: Phosphatase profiling, pNPP substrate; assay type: biochemical; settings: 30 μM, triplicate; positive = activation
Experimental: (§1) Assays were performed to profile compound CSDDD2320 against 21 phosphatase targets at 1 concentration (30 μM) in triplicate measurements. The aim was to identify whether the compound can affect the activity of the various phosphatase targets selected.
(§2) Protein Phosphatase Assay: The DUSP22, PTPN2 (TC-PTP), PTPN7 (LC-PTP), PTPRA (LRP), PTPRC (CD45), PTPRE, PTPRS, PTPN1(PTP1B) and PTPN13(FAP-1) phosphatase activity was determined by performing assays at 37° C. for 15 minutes in a final volume of 100 μl according to the following assay reaction recipe:
(§3) Component 1. 5 μl of diluted active protein phosphatase
(§4) Component 2. 50 μl of 1.5 mM pNPP substrate assay solution
(§5) Component 3. 25 μl of phosphatase assay buffer
(§6) Component 4. 20 μl of compound (150 μM) or 10% DMSO
(§7) The assay was started by incubating the reaction mixture at 37° C. for 15 minutes. After the 15 minute incubation period, the assay was terminated by the addition of 25 μl of 2N NaOH stopping solution. The absorbance of the reaction solution was measured in a spectrophotometer at 405 nm. Blank control was set up that included all the assay components except the addition of the pNPP substrate (replaced with equal volume of phosphatase assay buffer). The corrected activity for various phosphatase targets was determined by removing the blank control value.

PTPRC (CD45) = PTPRC (CD45) (Homo sapiens, UniProt P08575); experiment: Phosphatase profiling, pNPP substrate; assay type: biochemical; settings: 30 μM, triplicate; negative = inhibition; listed as CSDDD2320
Experimental: as §1, §2, §3, §4, §5, §6, §7

PTPN2 (TC-PTP) = PTPN2 (TC-PTP) (Homo sapiens, UniProt P17706); experiment: Phosphatase profiling, pNPP substrate; assay type: biochemical; settings: 30 μM, triplicate; positive = activation
Experimental: as §1, §2, §3, §4, §5, §6, §7

DUSP22 (MKPX) = DUSP22 (MKPX) (Homo sapiens, UniProt Q9NRW4); experiment: Phosphatase profiling, pNPP substrate; assay type: biochemical; settings: 30 μM, triplicate; negative = inhibition; listed as CSDDD2320
Experimental: as §1, §2, §3, §4, §5, §6, §7

PTPRS (PTP-sigma) = PTPRS (PTP-sigma) (Homo sapiens, UniProt Q13332); experiment: Phosphatase profiling, pNPP substrate; assay type: biochemical; settings: 30 μM, triplicate; negative = inhibition
Experimental: as §1, §2, §3, §4, §5, §6, §7

PTPRE = PTPRE (Homo sapiens, UniProt P23469); experiment: Phosphatase profiling, pNPP substrate; assay type: biochemical; settings: 30 μM, triplicate; negative = inhibition; listed as CSDDD2320
Experimental: as §1, §2, §3, §4, §5, §6, §7

PTPN1 (PTP1B) = PTPN1 (PTP1B) (Homo sapiens, UniProt P18031); experiment: Phosphatase profiling, pNPP substrate; assay type: biochemical; settings: 30 μM, triplicate; negative = inhibition
Experimental: as §1, §2, §3, §4, §5, §6, §7

PTPN13 (FAP-1) = PTPN13 (FAP-1) (Homo sapiens, UniProt Q12923); experiment: Phosphatase profiling, pNPP substrate; assay type: biochemical; settings: 30 μM, triplicate; positive = activation
Experimental: as §1, §2, §3, §4, §5, §6, §7

PTPN7 (LC-PTP) = PTPN7 (LC-PTP) (Homo sapiens, UniProt P35236); experiment: Phosphatase profiling, pNPP substrate; assay type: biochemical; settings: 30 μM, triplicate; positive = activation
Experimental: as §1, §2, §3, §4, §5, §6, §7

PTPRC (CD45), sequence (P08575 26-1306, species assumed): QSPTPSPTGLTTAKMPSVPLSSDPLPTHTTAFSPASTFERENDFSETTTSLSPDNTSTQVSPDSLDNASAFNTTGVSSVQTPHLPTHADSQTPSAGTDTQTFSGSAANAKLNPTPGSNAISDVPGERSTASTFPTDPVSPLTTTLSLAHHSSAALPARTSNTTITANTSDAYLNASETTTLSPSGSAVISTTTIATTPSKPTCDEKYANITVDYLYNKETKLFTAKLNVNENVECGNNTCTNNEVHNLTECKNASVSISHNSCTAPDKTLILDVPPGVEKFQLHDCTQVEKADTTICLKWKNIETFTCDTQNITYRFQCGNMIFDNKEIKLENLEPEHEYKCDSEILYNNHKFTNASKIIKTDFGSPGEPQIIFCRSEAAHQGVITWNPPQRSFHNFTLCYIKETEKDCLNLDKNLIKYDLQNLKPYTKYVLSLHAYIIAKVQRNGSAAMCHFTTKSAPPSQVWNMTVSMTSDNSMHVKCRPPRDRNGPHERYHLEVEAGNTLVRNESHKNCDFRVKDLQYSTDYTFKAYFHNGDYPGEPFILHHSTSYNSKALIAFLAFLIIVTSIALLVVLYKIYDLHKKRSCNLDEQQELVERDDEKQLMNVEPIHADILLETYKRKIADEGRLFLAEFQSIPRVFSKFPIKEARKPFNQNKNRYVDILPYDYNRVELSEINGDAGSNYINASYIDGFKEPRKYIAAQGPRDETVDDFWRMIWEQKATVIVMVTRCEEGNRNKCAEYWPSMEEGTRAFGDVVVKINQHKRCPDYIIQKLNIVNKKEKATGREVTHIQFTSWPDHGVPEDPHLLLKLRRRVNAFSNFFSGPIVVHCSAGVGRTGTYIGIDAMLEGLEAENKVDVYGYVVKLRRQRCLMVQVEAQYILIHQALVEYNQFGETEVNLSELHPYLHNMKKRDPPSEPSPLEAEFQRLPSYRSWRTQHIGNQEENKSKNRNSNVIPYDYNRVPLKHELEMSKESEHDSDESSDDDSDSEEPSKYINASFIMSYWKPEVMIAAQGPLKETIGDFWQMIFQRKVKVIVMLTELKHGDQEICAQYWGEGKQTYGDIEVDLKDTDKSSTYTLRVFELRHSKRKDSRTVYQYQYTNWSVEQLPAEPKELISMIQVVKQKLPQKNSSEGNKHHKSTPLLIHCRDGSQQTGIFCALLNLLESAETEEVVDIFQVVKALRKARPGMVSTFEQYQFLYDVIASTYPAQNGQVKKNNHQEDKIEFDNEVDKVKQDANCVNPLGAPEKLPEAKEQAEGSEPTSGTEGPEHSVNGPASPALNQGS
DUSP22 (MKPX), sequence (Q9NRW4 whole entry, species assumed): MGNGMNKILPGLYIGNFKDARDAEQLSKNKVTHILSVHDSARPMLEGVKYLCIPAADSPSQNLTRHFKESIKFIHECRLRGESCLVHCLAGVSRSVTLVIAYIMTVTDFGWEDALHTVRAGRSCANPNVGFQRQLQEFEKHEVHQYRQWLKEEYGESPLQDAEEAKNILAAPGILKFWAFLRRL
PTPRE, sequence (P23469 20-700, species assumed): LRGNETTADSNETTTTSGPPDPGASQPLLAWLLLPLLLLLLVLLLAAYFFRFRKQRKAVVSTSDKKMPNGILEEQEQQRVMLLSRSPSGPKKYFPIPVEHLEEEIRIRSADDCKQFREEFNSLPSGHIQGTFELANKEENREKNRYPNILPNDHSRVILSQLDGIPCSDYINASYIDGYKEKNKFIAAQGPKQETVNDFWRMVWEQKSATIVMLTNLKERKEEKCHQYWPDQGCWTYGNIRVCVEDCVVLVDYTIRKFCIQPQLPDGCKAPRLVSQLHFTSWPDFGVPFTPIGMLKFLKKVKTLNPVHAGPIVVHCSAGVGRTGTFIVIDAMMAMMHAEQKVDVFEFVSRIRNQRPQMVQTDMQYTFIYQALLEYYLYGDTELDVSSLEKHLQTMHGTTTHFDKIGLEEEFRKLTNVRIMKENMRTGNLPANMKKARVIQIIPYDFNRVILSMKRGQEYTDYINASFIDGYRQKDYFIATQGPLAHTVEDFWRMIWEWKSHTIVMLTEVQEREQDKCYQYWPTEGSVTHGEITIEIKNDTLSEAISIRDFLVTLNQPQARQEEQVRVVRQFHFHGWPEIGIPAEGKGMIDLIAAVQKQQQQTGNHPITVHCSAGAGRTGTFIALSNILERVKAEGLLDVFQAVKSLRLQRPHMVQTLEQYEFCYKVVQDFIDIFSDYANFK
PTPRS (PTP-sigma), sequence (Q13332 30-1948, species assumed): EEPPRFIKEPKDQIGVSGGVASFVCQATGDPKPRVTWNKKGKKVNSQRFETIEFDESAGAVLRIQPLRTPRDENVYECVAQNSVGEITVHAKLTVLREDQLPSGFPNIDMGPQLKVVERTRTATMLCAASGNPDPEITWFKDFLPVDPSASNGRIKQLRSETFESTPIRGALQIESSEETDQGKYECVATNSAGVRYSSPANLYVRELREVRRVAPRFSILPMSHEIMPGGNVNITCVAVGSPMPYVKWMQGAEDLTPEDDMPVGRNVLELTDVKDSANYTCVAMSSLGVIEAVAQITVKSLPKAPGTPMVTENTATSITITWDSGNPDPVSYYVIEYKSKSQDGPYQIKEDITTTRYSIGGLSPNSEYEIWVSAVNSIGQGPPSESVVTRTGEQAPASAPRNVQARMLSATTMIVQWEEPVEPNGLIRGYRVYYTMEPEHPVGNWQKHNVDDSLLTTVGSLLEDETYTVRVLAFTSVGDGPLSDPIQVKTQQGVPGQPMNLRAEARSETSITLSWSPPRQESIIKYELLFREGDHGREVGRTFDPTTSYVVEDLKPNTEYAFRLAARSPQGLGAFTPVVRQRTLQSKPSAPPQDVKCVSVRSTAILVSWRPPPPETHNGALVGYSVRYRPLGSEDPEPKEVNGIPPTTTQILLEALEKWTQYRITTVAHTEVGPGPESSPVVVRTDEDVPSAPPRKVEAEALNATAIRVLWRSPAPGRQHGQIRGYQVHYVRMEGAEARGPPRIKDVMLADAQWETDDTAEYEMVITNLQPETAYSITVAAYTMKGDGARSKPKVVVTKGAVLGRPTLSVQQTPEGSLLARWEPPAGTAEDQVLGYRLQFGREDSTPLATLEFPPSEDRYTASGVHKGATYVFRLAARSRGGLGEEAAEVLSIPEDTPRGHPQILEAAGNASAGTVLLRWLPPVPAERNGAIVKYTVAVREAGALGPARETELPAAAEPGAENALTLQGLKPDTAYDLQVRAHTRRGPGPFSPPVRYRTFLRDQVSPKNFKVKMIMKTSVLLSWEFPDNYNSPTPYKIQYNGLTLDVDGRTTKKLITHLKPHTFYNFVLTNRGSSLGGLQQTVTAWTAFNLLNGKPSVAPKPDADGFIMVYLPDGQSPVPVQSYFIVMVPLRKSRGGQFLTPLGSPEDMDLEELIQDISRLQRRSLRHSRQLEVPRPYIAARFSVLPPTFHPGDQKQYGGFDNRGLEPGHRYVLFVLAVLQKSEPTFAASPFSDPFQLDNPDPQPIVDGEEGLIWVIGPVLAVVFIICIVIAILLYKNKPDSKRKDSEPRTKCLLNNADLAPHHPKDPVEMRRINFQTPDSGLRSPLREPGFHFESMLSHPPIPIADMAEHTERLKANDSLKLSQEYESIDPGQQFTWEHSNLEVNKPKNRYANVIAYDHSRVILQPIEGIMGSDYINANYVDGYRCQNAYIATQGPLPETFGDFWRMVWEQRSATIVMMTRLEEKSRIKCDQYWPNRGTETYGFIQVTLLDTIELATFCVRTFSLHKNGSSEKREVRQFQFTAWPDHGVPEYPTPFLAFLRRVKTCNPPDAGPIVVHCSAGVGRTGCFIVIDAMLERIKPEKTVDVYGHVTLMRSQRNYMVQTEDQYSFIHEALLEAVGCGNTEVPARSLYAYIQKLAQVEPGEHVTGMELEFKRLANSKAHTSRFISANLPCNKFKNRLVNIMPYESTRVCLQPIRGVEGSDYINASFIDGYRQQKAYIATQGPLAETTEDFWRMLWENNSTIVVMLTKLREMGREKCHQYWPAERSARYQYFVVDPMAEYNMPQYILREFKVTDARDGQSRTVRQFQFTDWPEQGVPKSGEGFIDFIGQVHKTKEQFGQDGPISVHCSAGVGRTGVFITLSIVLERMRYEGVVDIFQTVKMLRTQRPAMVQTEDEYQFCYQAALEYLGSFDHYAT
PTPN7 (LC-PTP), sequence (P35236 whole entry, species assumed): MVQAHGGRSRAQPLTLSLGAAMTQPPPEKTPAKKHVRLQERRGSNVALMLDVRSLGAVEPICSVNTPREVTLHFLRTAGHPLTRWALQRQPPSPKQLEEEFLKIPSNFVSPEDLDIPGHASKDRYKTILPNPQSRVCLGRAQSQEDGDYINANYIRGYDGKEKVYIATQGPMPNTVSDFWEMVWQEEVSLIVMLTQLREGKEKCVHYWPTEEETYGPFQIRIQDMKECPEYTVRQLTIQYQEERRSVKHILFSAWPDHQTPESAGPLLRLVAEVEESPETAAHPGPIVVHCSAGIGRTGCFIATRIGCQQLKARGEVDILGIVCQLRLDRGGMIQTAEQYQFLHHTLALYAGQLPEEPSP
PTPN1 (PTP1B), sequence (P18031 whole entry, species assumed): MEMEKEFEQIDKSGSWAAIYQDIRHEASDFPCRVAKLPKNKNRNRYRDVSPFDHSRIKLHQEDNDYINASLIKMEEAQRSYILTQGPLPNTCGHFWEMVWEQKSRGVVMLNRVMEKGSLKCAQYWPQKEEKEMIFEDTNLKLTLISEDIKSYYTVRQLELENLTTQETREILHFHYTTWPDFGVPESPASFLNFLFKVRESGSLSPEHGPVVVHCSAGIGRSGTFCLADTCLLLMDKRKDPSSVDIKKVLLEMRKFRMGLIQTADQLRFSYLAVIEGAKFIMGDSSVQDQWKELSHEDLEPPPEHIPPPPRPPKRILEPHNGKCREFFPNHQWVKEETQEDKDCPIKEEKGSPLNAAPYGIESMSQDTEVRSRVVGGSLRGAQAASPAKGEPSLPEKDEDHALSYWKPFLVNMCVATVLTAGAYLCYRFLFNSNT

Row | aggregation [2] | fold increase in IC50 activity compared to NTS (full-length DUSP5; DUSP5/pERK assay) | IC50 (full-length DUSP5; full-length DUSP5, pERK substrate) [µM] | IC50 (full-length DUSP5; full-length DUSP5, pERK/ERK2 substrate) [µM] | % Change (activity change compared to control) (PTPRA (LRP)) [%] | % Change (activity change compared to control) (PTPRC (CD45)) [%] | % Change (activity change compared to control) (PTPN2 (TC-PTP)) [%] | % Change (activity change compared to control) (DUSP22 (MKPX)) [%] | % Change (activity change compared to control) (PTPRS (PTP-sigma)) [%] | % Change (activity change compared to control) (PTPRE) [%] | % Change (activity change compared to control) (PTPN1 (PTP1B)) [%] | % Change (activity change compared to control) (PTPN13 (FAP-1)) [%] | % Change (activity change compared to control) (PTPN7 (LC-PTP)) [%] | SMILES | activity in DUSP5:pERK assay, in words (full-length DUSP5; in vitro, western blot) | effect on normal vasculature [1]
1 | – | – | – | – | – | – | – | – | – | – | – | – | – | O=S(=O)([O-])c1ccc2[nH]c3c(S(=O)(=O)[O-])cc(S(=O)(=O)[O-])cc3c2c1.[Na+].[Na+].[Na+] [RR505, Carbazole-1,3,6-trisulfonic acid, Trisodium Salt] | sub-micromolar range | does not appear to affect normal vasculature
2 | no propensity to aggregate | 1,000 fold | 0.538 ± 0.271 | 33 | 5 | −12 | 2 | −13 | −6 | −11 | −4 | 6 | 7 | O=S(=O)(O)c1cc(O)c2c(S(=O)(=O)O)cccc2c1 [RR527] | – | –
